The kinase profiling compilation of Christmann-Franck et al. (2016)

Tests used:
Assay in all cases: radiometric filter-binding kinase assay
PRKCA (human) = PRKCA (human) (UniProt P17252)
HIPK2 (human) = HIPK2 (human) (UniProt Q9H2X6)
YES1 (human) = YES1 (human) (UniProt P07947)
NEK6 (human) = NEK6 (human) (UniProt Q9HC98)
NEK2 (human) = NEK2 (human) (UniProt P51955)
MAP3K9 (human) = MAP3K9 (human) (UniProt P80192)
[1] = test system: AKT2 (human), P31751 [S474D]
INSRR (human) = INSRR (human) (UniProt P14616); conditions: compound 1.0 µM
BTK (human) = BTK (human) (UniProt Q06187)
DYRK2 (human) = DYRK2 (human) (UniProt Q92630)
MAPK14 (human) = MAPK14 (human) (UniProt Q16539)
MARK4 (human) = MARK4 (human) (UniProt Q96L34)
CSNK2A1 (human) = CSNK2A1 (human) (UniProt P68400)
MAPK1 (human) = MAPK1 (human) (UniProt P28482)
MARK3 (human) = MARK3 (human) (UniProt P27448)
NTRK1 (human) = NTRK1 (human) (UniProt P04629)
IRAK4 (human) = IRAK4 (human) (UniProt Q9NWZ3)
MAPK15 (human) = MAPK15 (human) (UniProt Q8TD08)
MKNK2 (human) = MKNK2 (human) (UniProt Q9HBH9)
RPS6KA5 KD1 KD2 (human) = RPS6KA5 KD1 KD2 (human) (UniProt O75582)
AURKA (human) = AURKA (human) (UniProt O14965)
HIPK1 (human) = HIPK1 (human) (UniProt Q86Z02)
RIPK2 (human) = RIPK2 (human) (UniProt O43353)
JAK2 JH1 JH2 (human) = JAK2 JH1 JH2 (human) (UniProt O60674)
SRPK1 (human) = SRPK1 (human) (UniProt Q96SB4)
MAP3K1 (human) = MAP3K1 (human) (UniProt Q13233)
[2] = test system: RPS6KB1 (human), P23443 [T412E]
MAPKAPK3 (human) = MAPKAPK3 (human) (UniProt Q16644)
FLT1 (human) = FLT1 (human) (UniProt P17948)
RPS6KA1 KD1 KD2 (human) = RPS6KA1 KD1 KD2 (human) (UniProt Q15418)
CLK2 (human) = CLK2 (human) (UniProt P49760)
CSNK1D (human) = CSNK1D (human) (UniProt P48730)
[3] = target: STK11 CAB39 STRADA (human) (UniProt Q9Y376+Q7RTN6+Q15831)
Chain of STK11 CAB39 STRADA (human) (Q15831 whole entry, looked up): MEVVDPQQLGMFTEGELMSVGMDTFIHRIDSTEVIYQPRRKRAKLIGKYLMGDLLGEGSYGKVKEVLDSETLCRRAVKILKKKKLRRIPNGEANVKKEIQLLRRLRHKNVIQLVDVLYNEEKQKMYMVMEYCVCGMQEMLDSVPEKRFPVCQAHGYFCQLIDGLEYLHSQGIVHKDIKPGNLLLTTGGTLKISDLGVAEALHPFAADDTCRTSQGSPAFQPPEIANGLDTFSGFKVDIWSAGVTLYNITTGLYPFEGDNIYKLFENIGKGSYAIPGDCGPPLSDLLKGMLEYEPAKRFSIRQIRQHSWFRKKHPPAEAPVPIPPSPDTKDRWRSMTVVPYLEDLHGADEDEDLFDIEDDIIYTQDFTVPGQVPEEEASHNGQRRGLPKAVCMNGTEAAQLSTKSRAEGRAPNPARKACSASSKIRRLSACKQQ
Chain of STK11 CAB39 STRADA (human) (Q7RTN6 whole entry, looked up): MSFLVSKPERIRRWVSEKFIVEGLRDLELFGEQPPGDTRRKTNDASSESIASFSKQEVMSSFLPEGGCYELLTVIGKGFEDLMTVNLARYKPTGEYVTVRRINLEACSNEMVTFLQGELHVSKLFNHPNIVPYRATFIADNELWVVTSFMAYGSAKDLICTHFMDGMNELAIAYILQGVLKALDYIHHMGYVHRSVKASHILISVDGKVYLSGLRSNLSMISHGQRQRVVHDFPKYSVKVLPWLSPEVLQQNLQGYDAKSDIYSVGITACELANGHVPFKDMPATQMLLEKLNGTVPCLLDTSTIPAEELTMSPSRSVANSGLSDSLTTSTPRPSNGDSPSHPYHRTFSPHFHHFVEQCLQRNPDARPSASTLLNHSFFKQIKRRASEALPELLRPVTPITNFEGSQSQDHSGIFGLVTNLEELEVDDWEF
Chain of STK11 CAB39 STRADA (human) (Q9Y376 whole entry, looked up): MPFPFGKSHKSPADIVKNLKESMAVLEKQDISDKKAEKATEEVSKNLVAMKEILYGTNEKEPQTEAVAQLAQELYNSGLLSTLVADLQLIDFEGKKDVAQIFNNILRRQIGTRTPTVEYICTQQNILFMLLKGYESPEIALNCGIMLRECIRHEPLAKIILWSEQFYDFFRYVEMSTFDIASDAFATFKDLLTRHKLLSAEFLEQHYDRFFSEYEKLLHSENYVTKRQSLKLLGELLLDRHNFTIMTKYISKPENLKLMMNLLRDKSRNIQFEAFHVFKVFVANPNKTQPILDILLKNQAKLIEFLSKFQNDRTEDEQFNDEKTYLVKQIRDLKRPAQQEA

Chain of FLT1 (human) (P17948 whole entry, looked up): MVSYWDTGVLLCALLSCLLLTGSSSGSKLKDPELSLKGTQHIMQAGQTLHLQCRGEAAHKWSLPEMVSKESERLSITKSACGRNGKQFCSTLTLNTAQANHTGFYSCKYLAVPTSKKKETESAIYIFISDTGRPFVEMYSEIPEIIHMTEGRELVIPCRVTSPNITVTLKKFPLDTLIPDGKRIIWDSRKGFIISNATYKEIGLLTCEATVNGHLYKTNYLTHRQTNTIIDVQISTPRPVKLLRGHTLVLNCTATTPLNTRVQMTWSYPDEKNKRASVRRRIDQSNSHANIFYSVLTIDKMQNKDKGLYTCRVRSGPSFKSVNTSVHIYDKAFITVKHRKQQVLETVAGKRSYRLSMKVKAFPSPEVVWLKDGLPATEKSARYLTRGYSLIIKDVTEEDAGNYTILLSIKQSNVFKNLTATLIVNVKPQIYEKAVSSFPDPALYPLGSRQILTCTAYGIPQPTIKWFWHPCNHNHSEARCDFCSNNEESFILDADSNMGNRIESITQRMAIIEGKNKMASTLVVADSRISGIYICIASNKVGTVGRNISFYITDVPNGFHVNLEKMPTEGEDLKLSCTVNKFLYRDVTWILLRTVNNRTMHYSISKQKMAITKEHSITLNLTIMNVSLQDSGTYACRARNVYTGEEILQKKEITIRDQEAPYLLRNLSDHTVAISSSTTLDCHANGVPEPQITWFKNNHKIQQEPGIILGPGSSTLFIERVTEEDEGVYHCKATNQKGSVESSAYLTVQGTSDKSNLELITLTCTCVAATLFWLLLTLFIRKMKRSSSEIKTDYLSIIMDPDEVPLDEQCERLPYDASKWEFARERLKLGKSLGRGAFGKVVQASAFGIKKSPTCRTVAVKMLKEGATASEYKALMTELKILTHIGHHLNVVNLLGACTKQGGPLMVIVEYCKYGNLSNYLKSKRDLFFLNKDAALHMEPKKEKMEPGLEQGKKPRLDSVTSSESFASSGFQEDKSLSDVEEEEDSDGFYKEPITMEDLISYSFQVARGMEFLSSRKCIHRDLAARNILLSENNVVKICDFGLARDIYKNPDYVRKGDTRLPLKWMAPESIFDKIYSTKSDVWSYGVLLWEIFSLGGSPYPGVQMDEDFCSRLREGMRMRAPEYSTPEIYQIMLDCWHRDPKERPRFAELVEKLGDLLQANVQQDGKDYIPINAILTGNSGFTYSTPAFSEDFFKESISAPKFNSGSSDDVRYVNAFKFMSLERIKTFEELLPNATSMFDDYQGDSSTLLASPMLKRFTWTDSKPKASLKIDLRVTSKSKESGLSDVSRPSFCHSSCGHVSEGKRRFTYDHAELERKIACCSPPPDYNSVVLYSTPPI
Chain of MARK3 (human) (P27448 whole entry, looked up): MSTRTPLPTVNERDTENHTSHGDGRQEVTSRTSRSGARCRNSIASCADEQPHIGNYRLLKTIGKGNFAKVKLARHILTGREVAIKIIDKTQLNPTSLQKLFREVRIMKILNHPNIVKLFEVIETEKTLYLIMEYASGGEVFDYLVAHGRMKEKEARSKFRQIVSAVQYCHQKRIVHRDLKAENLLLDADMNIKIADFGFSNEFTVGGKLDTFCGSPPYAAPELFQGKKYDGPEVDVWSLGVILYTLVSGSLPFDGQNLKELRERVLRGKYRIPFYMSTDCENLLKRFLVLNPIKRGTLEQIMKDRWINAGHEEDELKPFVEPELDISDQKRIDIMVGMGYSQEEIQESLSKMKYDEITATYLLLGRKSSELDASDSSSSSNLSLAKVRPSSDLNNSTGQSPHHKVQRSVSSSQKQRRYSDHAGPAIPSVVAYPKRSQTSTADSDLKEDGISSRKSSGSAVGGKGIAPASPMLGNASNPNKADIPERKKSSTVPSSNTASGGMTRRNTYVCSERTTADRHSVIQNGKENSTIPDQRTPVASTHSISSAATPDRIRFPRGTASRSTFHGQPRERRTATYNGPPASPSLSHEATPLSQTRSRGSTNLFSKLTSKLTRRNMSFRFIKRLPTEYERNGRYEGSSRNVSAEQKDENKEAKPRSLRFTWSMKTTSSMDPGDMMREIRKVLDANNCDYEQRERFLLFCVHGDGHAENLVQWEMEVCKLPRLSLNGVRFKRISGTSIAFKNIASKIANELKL
Chain of RPS6KB1 (human), P23443 [T412E] (P23443 whole entry T412E, looked up): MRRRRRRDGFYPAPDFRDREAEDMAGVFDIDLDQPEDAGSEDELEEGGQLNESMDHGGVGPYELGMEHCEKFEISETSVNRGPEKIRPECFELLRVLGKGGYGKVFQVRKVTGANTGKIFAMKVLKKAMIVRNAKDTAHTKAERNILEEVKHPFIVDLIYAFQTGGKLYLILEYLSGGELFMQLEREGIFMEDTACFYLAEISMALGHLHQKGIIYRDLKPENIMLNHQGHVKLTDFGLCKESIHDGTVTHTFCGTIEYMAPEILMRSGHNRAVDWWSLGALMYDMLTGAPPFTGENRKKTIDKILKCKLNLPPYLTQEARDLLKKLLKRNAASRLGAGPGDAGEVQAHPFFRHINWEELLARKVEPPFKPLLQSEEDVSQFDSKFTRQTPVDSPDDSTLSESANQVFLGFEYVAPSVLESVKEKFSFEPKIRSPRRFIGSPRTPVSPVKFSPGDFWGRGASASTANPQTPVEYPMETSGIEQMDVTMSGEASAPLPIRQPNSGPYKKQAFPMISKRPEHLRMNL
Chain of YES1 (human) (P07947 whole entry, looked up): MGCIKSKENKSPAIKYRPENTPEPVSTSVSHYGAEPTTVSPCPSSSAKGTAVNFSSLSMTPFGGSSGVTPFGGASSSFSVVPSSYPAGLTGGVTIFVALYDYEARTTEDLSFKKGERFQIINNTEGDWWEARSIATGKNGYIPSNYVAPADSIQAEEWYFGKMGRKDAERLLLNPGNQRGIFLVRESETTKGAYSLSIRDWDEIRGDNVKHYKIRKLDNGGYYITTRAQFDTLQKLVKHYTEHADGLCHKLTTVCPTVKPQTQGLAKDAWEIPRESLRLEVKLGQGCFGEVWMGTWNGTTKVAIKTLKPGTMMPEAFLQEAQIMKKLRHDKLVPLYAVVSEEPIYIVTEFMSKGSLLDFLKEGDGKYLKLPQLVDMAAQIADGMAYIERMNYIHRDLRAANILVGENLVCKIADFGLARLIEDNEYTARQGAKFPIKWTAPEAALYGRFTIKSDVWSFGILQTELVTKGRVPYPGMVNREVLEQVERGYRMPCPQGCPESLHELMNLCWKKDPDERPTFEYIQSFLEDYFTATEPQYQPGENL
Chain of MKNK2 (human) (Q9HBH9 whole entry, looked up): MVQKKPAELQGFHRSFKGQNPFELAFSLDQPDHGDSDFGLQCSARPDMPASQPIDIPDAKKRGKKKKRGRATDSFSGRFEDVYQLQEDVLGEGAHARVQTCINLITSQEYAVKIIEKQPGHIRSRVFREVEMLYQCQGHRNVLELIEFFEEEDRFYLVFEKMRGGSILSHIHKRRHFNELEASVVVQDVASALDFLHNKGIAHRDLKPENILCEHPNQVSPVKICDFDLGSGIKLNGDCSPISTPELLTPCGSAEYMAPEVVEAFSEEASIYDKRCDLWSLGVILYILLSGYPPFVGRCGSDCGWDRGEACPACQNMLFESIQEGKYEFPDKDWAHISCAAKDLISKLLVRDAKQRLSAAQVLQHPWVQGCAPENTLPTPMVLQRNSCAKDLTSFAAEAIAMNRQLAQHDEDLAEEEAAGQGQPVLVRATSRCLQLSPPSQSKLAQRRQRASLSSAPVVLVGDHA

- residual activity (PRKCA (human); compound 1.0 µM): 93%
- residual activity (PRKCA (human); compound 10.0 µM): 86%
- residual activity (HIPK2 (human); compound 1.0 µM): 102%
- residual activity (HIPK2 (human); compound 10.0 µM): 106%
- residual activity (YES1 (human); compound 1.0 µM): 76%
- residual activity (YES1 (human); compound 10.0 µM): 79%
- residual activity (NEK6 (human); compound 1.0 µM): 101%
- residual activity (NEK6 (human); compound 10.0 µM): 103%
- residual activity (NEK2 (human); compound 1.0 µM): 98%
- residual activity (NEK2 (human); compound 10.0 µM): 94%
- residual activity (MAP3K9 (human); compound 1.0 µM): 84%
- residual activity (MAP3K9 (human); compound 10.0 µM): 85%
- residual activity ([1]; compound 1.0 µM): 97%
- residual activity ([1]; compound 10.0 µM): 90%
- residual activity (INSRR (human)): 84%
- residual activity (BTK (human); compound 1.0 µM): 102%
- residual activity (BTK (human); compound 10.0 µM): 97%
- residual activity (DYRK2 (human); compound 1.0 µM): 107%
- residual activity (DYRK2 (human); compound 10.0 µM): 111%
- residual activity (MAPK14 (human); compound 1.0 µM): 102%
- residual activity (MAPK14 (human); compound 10.0 µM): 97%
- residual activity (MARK4 (human); compound 1.0 µM): 119%
- residual activity (MARK4 (human); compound 10.0 µM): 108%
- residual activity (CSNK2A1 (human); compound 1.0 µM): 111%
- residual activity (CSNK2A1 (human); compound 10.0 µM): 98%
- residual activity (MAPK1 (human); compound 1.0 µM): 83%
- residual activity (MAPK1 (human); compound 10.0 µM): 79%
- residual activity (MARK3 (human); compound 1.0 µM): 73%
- residual activity (MARK3 (human); compound 10.0 µM): 88%
- residual activity (NTRK1 (human); compound 1.0 µM): 79%
- residual activity (NTRK1 (human); compound 10.0 µM): 78%
- residual activity (IRAK4 (human); compound 1.0 µM): 77%
- residual activity (IRAK4 (human); compound 10.0 µM): 91%
- residual activity (MKNK2 (human); compound 1.0 µM): 89%
- residual activity (MKNK2 (human); compound 10.0 µM): 90%
- residual activity (RPS6KA5 KD1 KD2 (human); compound 1.0 µM): 98%
- residual activity (RPS6KA5 KD1 KD2 (human); compound 10.0 µM): 96%
- residual activity (AURKA (human); compound 1.0 µM): 103%
- residual activity (AURKA (human); compound 10.0 µM): 104%
- residual activity (HIPK1 (human); compound 1.0 µM): 96%
- residual activity (HIPK1 (human); compound 10.0 µM): 85%
- residual activity (RIPK2 (human); compound 1.0 µM): 86%
- residual activity (RIPK2 (human); compound 10.0 µM): 84%
- residual activity (JAK2 JH1 JH2 (human); compound 1.0 µM): 5%
- residual activity (JAK2 JH1 JH2 (human); compound 10.0 µM): 8%
- residual activity (SRPK1 (human); compound 1.0 µM): 95%
- residual activity (SRPK1 (human); compound 10.0 µM): 86%
- residual activity (MAP3K1 (human); compound 1.0 µM): 88%
- residual activity (MAP3K1 (human); compound 10.0 µM): 93%
- residual activity ([2]; compound 1.0 µM): 94%
- residual activity ([2]; compound 10.0 µM): 80%
- residual activity (MAPKAPK3 (human); compound 1.0 µM): 94%
- residual activity (MAPKAPK3 (human); compound 10.0 µM): 77%
- residual activity (FLT1 (human); compound 1.0 µM): 98%
- residual activity (FLT1 (human); compound 10.0 µM): 42%
- residual activity (RPS6KA1 KD1 KD2 (human); compound 1.0 µM): 122%
- residual activity (RPS6KA1 KD1 KD2 (human); compound 10.0 µM): 98%
- residual activity (CLK2 (human); compound 1.0 µM): 94%
- residual activity (CLK2 (human); compound 10.0 µM): 91%
- residual activity (CSNK1D (human); compound 1.0 µM): 96%
- residual activity (CSNK1D (human); compound 10.0 µM): 97%
- residual activity ([3]; compound 1.0 µM): 80%
- residual activity ([3]; compound 10.0 µM): 77%
Compound: O=C(NOCC(O)CO)c1ccc(F)c(F)c1Nc1ccc(I)cc1Cl (stereo not given)
- residual activity (MAPK15 (human); compound 1.0 µM): 95%
- residual activity (MAPK15 (human); compound 10.0 µM): 98%
